Values joined by “and” are separate entries in the source; they are usually repeats but may differ in a detail not shown here. Equal values may be shown once. After the bases stand the sugars from the 5' end (letter, count) and the backbone: PS all phosphorothioate, else s phosphorothioate and o phosphodiester by linkage. Methylation of C is not given here. k = constrained ethyl (cEt); d = 2'-deoxy (DNA)
Target: MALAT1
Conditions: ASO, A431, 0.005 µM

| Sequence | target mRNA inhibition |
| --- | --- |
| GACTTTCTCCCCCAAC (sugars k3 d10 k3, PS) | 6% |
| GAGAAAGTGCCATGGT (sugars k3 d10 k3, PS) | 26% |
| GAGATACCTGTCTGAG (sugars k3 d10 k3, PS) | 40% |
| GAGCATTGGAGATCAG (sugars k3 d10 k3, PS) | 29% |
| GAGGGACAGTAGGTAT (sugars k3 d10 k3, PS) | 19% |
| GAGGGAGTTGAGGCAA (sugars k3 d10 k3, PS) | 24% |
| GAGGGCCTCTATTGCC (sugars k3 d10 k3, PS) | 14% |
| GAGTATGCTGATAAAC (sugars k3 d10 k3, PS) | 37% |
| GAGTGAAGTGTACTAT (sugars k3 d10 k3, PS) | 62% and 77% |
| GAGTTCAAGTGGCCTT (sugars k3 d10 k3, PS) | 17% |
| GATCACCTTCCGCCGC (sugars k3 d10 k3, PS) | 6% |
| GATCATAATCTCCCAC (sugars k3 d10 k3, PS) | 41% |
| GATCTTGAATTACTTC (sugars k3 d10 k3, PS) | 49% |
| GATGTGATTTTTAACC (sugars k3 d10 k3, PS) | 52% and 56% |
| GATTAATGTAGTGTAA (sugars k3 d10 k3, PS) | 23% |
| GATTGTAAGCATTTAA (sugars k3 d10 k3, PS) | 54% and 67% |
| GCAAGGTCTCATACAC (sugars k3 d10 k3, PS) | 48% and 59% |
| GCAATTCAAAATCCTG (sugars k3 d10 k3, PS) | 51% |
| GCACATCATGCTATTC (sugars k3 d10 k3, PS) | 45% |

| Sequence | target mRNA inhibition |
| --- | --- |
| GCACGGAAATTTTTCT (sugars k3 d10 k3, PS) | -3% |
| GCACGGGCTGTCTGCT (sugars k3 d10 k3, PS) | -12% |
| GCACTAAAGATCACTG (sugars k3 d10 k3, PS) | 23% |
| GCACTGATCACTTTAG (sugars k3 d10 k3, PS) | 63% and 47% and 50% |
| GCAGCGGGATCAGAAC (sugars k3 d10 k3, PS) | 34% |
| GCAGTAGGGCTTCTCA (sugars k3 d10 k3, PS) | -8% |
| GCAGTTTCTATAGTAG (sugars k3 d10 k3, PS) | 45% |
| GCATAAAGCTGAAATC (sugars k3 d10 k3, PS) | 4% |
| GCCAACTTGGAAGTTG (sugars k3 d10 k3, PS) | -19% |
| GCCACTCAAATGCCTA (sugars k3 d10 k3, PS) | 18% |
| GCCAGTGGCCCACTCT (sugars k3 d10 k3, PS) | -8% |
| GCCATCTACTATTTCT (sugars k3 d10 k3, PS) | 38% |
| GCCCCCTCAGCAGAAG (sugars k3 d10 k3, PS) | 25% |
| GCCCCTGCGCTGGCTG (sugars k3 d10 k3, PS) | 12% |
| GCCCGCTTTCCCCCTT (sugars k3 d10 k3, PS) | -29% |
| GCCGTTGGCTGCCAGT (sugars k3 d10 k3, PS) | -8% |
| GCCTACCACTCTAAGA (sugars k3 d10 k3, PS) | 29% |
| GCCTACTCAAGCTCTT (sugars k3 d10 k3, PS) | 20% |
| GCCTCAATGCCTACCG (sugars k3 d10 k3, PS) | -11% |

| Sequence | target mRNA inhibition |
| --- | --- |
| GCCTGCTACCTTCATC (sugars k3 d10 k3, PS) | 36% |
| GCCTGGAATTATTATA (sugars k3 d10 k3, PS) | 31% |
| GCCTTTAGGATTCTAG (sugars k3 d10 k3, PS) | 30% |
| GCCTTTATCACTCAGC (sugars k3 d10 k3, PS) | 29% |
| GCCTTTGTGAGGGAGG (sugars k3 d10 k3, PS) | -23% |
| GCCTTTTCTAACATAG (sugars k3 d10 k3, PS) | -1% |
| GCGAGTTCAAGTGGCC (sugars k3 d10 k3, PS) | -5% |
| GCGCCGGGCTTCTGCG (sugars k3 d10 k3, PS) | 29% |
| GCGGTTTCCTCAAGCT (sugars k3 d10 k3, PS) | 20% |
| GCTAAGCAATATCTTA (sugars k3 d10 k3, PS) | 32% |
| GCTACTTAGCTGTGGT (sugars k3 d10 k3, PS) | 28% |
| GCTAGGGAAAAGTGGT (sugars k3 d10 k3, PS) | 5% |
| GCTCGCCTCCTCCGTG (sugars k3 d10 k3, PS) | 27% |
| GCTCGCTTGCTCCTCA (sugars k3 d10 k3, PS) | 39% |
| GCTCTGTAGTCCTTTC (sugars k3 d10 k3, PS) | 42% |
| GCTGAAATTGTCTCAA (sugars k3 d10 k3, PS) | 45% |
| GCTGAGGCTTCCCGGC (sugars k3 d10 k3, PS) | 15% |
| GCTGATAAACTCACTG (sugars k3 d10 k3, PS) | 55% and 65% |
| GCTGCAAACTTTAGAC (sugars k3 d10 k3, PS) | -9% |

Source: the OligoGym collection
